Test results: patent publication US5096919A, “Pyrrolylphenyl-substituted hydroxamic acid derivatives” (Ciba-Geigy Corporation, priority 1989, dated 1992)

Experiments:
[1] = molecular target: T1, 5-lipoxygenase (Cavia porcellus, UniProt A0A286X958); experiment: Inhibition of 5-HETE and LTB4 synthesis in A-23187-stimulated guinea pig polymorphonuclear leukocytes; type: cell-based; conditions: also printed as 7×10^-7 M, read-out: IC50 for inhibition of the formation of 5-HETE and leukotriene B4 (LTB4)
T1 construct: in A-23187-stimulated guinea pig polymorphonuclear leukocytes; endogenous in cells; host or cells: guinea pig polymorphonuclear leukocytes
T1 sequence (A0A286X958 1-674): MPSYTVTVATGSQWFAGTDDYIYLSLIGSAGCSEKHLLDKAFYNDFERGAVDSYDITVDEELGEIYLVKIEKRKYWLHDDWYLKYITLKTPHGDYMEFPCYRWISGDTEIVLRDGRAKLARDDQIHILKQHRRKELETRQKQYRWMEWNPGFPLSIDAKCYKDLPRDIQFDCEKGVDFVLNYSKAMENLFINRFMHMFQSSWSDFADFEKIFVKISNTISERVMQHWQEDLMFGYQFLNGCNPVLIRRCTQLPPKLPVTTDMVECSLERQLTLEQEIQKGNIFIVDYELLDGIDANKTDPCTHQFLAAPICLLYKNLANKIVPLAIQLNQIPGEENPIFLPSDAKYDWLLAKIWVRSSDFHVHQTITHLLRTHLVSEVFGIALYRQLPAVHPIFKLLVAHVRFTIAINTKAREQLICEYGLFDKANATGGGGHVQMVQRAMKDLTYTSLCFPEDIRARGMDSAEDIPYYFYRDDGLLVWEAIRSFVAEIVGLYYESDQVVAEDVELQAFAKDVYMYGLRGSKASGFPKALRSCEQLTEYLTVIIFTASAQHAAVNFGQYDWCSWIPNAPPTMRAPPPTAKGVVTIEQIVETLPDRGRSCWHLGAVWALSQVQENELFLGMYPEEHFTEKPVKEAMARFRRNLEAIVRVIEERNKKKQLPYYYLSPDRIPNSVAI
Protocol: 5-Lipoxygenase inhibition is determined e.g. by measuring the percent inhibition of the synthesis of 5-HETE [(5S)-5-hydroxy-6,8,11,14-eicosa-tetraenoic acid] and leukotriene B4 (LTB4, 5,12-dihydroxy-6,8,10,14-eicosatetraenoic acid) in A-23187-stimulated guinea pig polymorphonuclear leukocytes, essentially according to radiometric thin-layer chromatographic assays described by Walker and Dawson (J. Pharm. Pharmacol. 31: 778, 1979) and Jakschik and Lee (Nature 287: 51, 1980) used to measure the formation of 5-HETE and LTB4 -like products from ^14 C-arachidonic acid. IC50 values are determined graphically as the concentration of test compound at which the synthesis of 5-HETE and LTB4 -like products is reduced to 50% of their respective control values.
(§1) Illustrative of the invention, the compound of example 1, (E)-3-[4-(2,5-dimethyl-1H-pyrrol-1-yl)-phenyl]-N-hydroxy-N-methyl-2-propenamide, inhibits the formation of 5-HETE [(5S)-5-hydroxy-6,8,11,14-eicosa-tetraenoic acid] and leukotriene B4 (LTB4, 5,12-dihydroxy-6,8,10,14-eicosatetraenoic acid) in A-23187-stimulated guinea pig polymorphonuclear leukocytes, e.g. at an IC50 of about 0.7 micromolar (7×10^-7 M).

[2] = test system: rat pleurisy model of inflammation; experiment: Carrageenin-induced pleurisy model of inflammation; type: in vivo; conditions: 10 mg/kg p.o. at -1, 6, 24 and 45 hours relative to carrageenin injection, 48 hours after injection
[3] = test system: 5-lipoxygenase; experiment: Ex vivo inhibition of A-23187-stimulated LTB4 formation in whole blood after oral administration; conditions: dose of about 1 mg/kg p.o. to the dog
Protocol: Furthermore, the inhibition of 5-lipoxygenase is determined after oral or i.v. administration to rats or dogs by measuring ex vivo in whole blood the decrease of A-23187-stimulated LTB4 formation as compared to non-treated control animals.
as §1

SMILES: Cc1ccc(C)n1-c1ccc(/C=C/C(=O)N(C)O)cc1 [Example 1, (E)-3-[4-(2,5-dimethyl-1H-pyrrol-1-yl)-phenyl]-N-hydroxy-N-methyl-2-propenamide]
- IC50 [1]: ~700 nM
- cell count of leukocytes [2]: lowers the cell count of leukocytes
- inhibition of exudate volume [2]: causes inhibition of exudate volume
- inhibition of LTB4 formation as determined ex vivo [3]: 50%
